Earlier results on 1 compound are cited in patent US8753679B2, “Capsule formulation of pirfenidone and pharmaceutically acceptable excipients” (Intermune, Inc., priority 2005, dated 2014).

Usually Tmax stands for the time from dosing to the highest level. Broadly, the Cmax is the highest concentration seen after dosing.

For data set [1] the following is noted: 200 mg single dose on day 1, coated tablet with excipients, 15 patients, serum.
For the next data set, the system named is pulmonary fibrosis. The conditions noted are these: after 4 to 6 months on oral pirfenidone.
Data set [2] relates to benign prostate hypertrophy. The conditions noted are these: oral pirfenidone, older men with clinically advanced BPH.
For data set [3] the following is noted: single oral dose 400 mg as four 100 mg capsules of 100% pirfenidone, 10 healthy adult males, plasma.
For data set [4] the following is noted: oral 400 mg, capsule of 100% pirfenidone.
Data set [5] concerns human mesenchymal-like cells (including lung fibroblasts, skin fibroblasts, prostate stromal cells, and renal mesangial cells).

Like-named read-outs stand apart in the source and are kept apart here.

Turning to `Cc1ccc(=O)n(-c2ccccc2)c1` [Pirfenidone, 5-methyl-1-phenyl-2-(1H)-pyridone], in data set [1], the AUC4hr was 7300 ± 1600 ng·h/mL, the T1/2 is 3.5 ± 2.2 h and the time of peak concentration (Tmax) is 1.8 ± 1.1 h. Moreover, in data set [1] (HPLC), the Cmax was 2700 ± 700 ng/mL. For the same compound, the “lung function (pulmonary function tests, VC, DLCO)” value with pulmonary fibrosis was “inhibition or blocking of further deterioration in lung function”. Where the note is “after oral administration, drowsiness, gastric nausea or photosensitivity rash”, the observed side effects result was “relatively mild”. Also, under “clinical investigations”, the serious adverse reactions entry is “No serious adverse reactions”. Besides, the “response of patients based on objective criteria” value in data set [2] was “functional improvement”. In data set [3], the AUC6hr was 20.8±10.0 μg/mL-hr, the T1/2 was 2.2 ± 0.6 h and the time of peak concentration (Tmax) was 0.9 ± 0.3 h. Moreover, in data set [3] (gas chromatography), the Cmax is 6300 ± 2500 ng/mL. Further, the T1/2 in data set [4] (ten human volunteers) is 2.87 ± 0.22 h. In data set [4] (ten human volunteers (FIG. 3)), the “time at which maximum serum pirfenidone level was reached” value was “between one and three hours”. The “effective levels relative to levels exerting pharmacologically toxic effects on the cells” value in data set [5] (graded concentrations in cell culture media) was “ten to twenty times lower”. Besides, the “effect on excessive cell proliferation induced by cytokine growth factors (TGF-β1, bFGF, PDGF, and EGF)” value in data set [5] (in vitro cell cultures) is “pharmacologic inhibition”.
